Results from patent US20200345633A1, “Pharmaceutical Compositions for Controlling and/or Reducing the Progression of Myopia” (Brien Holden Vision Institute Limited, priority 2017, published 2020).
Like-named read-outs stand apart in the source and are kept apart here.

What was measured:
[1] = tested on: myopia; details: oral administration, young myopic children, one year; cited from earlier work
[2] = tested on: myopia; details: cited from earlier work
[3] = tested on: primate eyes; experiment: Choroidal thickness via Ocular Coherence Tomography (OCT) after eye drops in primate eyes; details: atropine at 0.1 wt. % concentration; data not shown
[4] = tested on: accommodation; details: systemic intake; cited from earlier work
[5] = tested on: human eye; details: concentration of 1 wt. %; cited from earlier work

Compound: Cn1cnc2[nH]c(=O)[nH]c(=O)c21 [7-methylxanthine]
- axial eye growth [1]: retards axial eye growth
- progression of myopia [1]: slowing of the progression of myopia
- side effects [1]: without significant side effects

Compound: CN1[C@@H]2CC[C@H]1C[C@@H](OC(=O)C(CO)c1ccccc1)C2 (stereo partly drawn) [atropine]
- effect on accommodative amplitude ([2]; 0.01 wt. %): not significant
- pupil size increase ([2]; 0.01 wt. %): minimal
- adverse effects ([2]; concentrations of 1% and 0.5%): significant short term adverse effects
- progression of myopia ([2]; initially used in concentrations of approximately 1%): slow the progression of myopia
- axial length elongation ([2]; low dose, 0.01 wt %): not effective in reducing axial length elongation
- side effects ([2]; low-concentration topical, 0.01 wt. %): not induce side effects
- adverse effects [3]: adverse effects result

Compound: Cn1c(=O)c2c(ncn2C)n(C)c1=O [caffeine]
- accommodation [4]: enhances accommodation
- safety of topical use [5]: safely been used topically
